# Reference: patent EP0221541A2, “Quinolonecarboxylic acid derivatives and their preparation” (KYORIN PHARMACEUTICAL CO., LTD., priority 1985, dated 1987)
# How the values were obtained:
# Assay type in all cases: cell-based
# [1] = tested on: B. thetaiotaomicron (0661); experiment: MIC, antibacterial spectrum (anaerobic bacteria); conditions: Bacteroides thetaiotaomicron
# B. distasonis 8503 = experiment: MIC, antibacterial spectrum (anaerobic bacteria); conditions: Parabacteroides distasonis, 8503
# P. maltophilia GIFU 2491 = experiment: MIC, antibacterial spectrum (aerobic bacteria); conditions: Stenotrophomonas maltophilia, GIFU2491
# [2] = tested on: S. aureus IID 670 (Terajima); experiment: MIC, antibacterial spectrum (aerobic bacteria); conditions: Staphylococcus aureus, IID670
# [3] = tested on: Proteus vulgaris IFO 3167; experiment: MIC, antibacterial spectrum (aerobic bacteria); conditions: Proteus vulgaris, IFO3167
# E. faecalis IID 682 = experiment: MIC, antibacterial spectrum (aerobic bacteria); conditions: Enterococcus faecalis, IID682
# [4] = tested on: Yersinia enterocolitica IID 981; experiment: MIC, antibacterial spectrum (aerobic bacteria); conditions: Yersinia enterocolitica, IID981
# [5] = tested on: Peptostreptococcus anaerobius KYA 27337; experiment: MIC, antibacterial spectrum (anaerobic bacteria); conditions: Peptostreptococcus anaerobius, KYA27337
# [6] = tested on: Salmonella enteritidis IID 604; experiment: MIC, antibacterial spectrum (aerobic bacteria); conditions: Salmonella enterica
# E. coli ML 4707 = experiment: MIC, antibacterial spectrum (aerobic bacteria); conditions: Escherichia coli, ML4707
# [7] = tested on: Eubacterium lentum GAI 5242; experiment: MIC, antibacterial spectrum (anaerobic bacteria); conditions: Eggerthella lenta, GAI5242
# S. pyogenes IID 692 = experiment: MIC, antibacterial spectrum (aerobic bacteria); conditions: Streptococcus pyogenes, IID692
# B. fragilis 0558 = experiment: MIC, antibacterial spectrum (anaerobic bacteria); conditions: Bacteroides fragilis, 0558
# [8] = tested on: S. pyogenes IID 689 (S-8); experiment: MIC, antibacterial spectrum (aerobic bacteria); conditions: Streptococcus pyogenes, IID689
# [9] = tested on: Pseudomonas aeruginosa V-1; experiment: MIC, antibacterial spectrum (aerobic bacteria); conditions: Pseudomonas aeruginosa, V1
# [10] = tested on: Escherichia coli NIHJ JC-2; experiment: MIC, antibacterial spectrum (aerobic bacteria); conditions: NIHJJC2, Escherichia coli NIHJ JC-2, Gram -, 10^6 cells/ml
# [11] = tested on: Staphylococcus aureus 209 P; experiment: MIC, antibacterial spectrum (aerobic bacteria); conditions: Staphylococcus aureus, 209P
# Shigella sonnei IID 969 = experiment: MIC, antibacterial spectrum (aerobic bacteria); conditions: IID969, Shigella sonnei IID 969, Gram -, 10^6 cells/ml
# Protocol: Minimal inhibitory concentrations (MICs) were determined in accordance with the method recommended by Japan Society of Chemotherapy.
# B. fragilis 25285 = experiment: MIC, antibacterial spectrum (anaerobic bacteria); conditions: Bacteroides fragilis, 25285
# E. coli ATCC 10536 = experiment: MIC, antibacterial spectrum (aerobic bacteria); conditions: Escherichia coli, ATCC10536
# K. pneumoniae 1-220S = experiment: MIC, antibacterial spectrum (aerobic bacteria); conditions: Klebsiella pneumoniae, 1220S
# [12] = tested on: Serratia marcescens IID 618; experiment: MIC, antibacterial spectrum (aerobic bacteria); conditions: Serratia marcescens, IID618
# [13] = tested on: Propionibacterium acens 11828; experiment: MIC, antibacterial spectrum (anaerobic bacteria); conditions: Propionibacterium, 11828
# P. mirabilis IID 994 = experiment: MIC, antibacterial spectrum (aerobic bacteria); conditions: Proteus mirabilis, IID994
# [14] = tested on: Veillonella parvula KYA 10790; experiment: MIC, antibacterial spectrum (anaerobic bacteria); conditions: KYA10790, Veillonella parvula KYA 10790, Gram -, 10^6 cells/ml
# [15] = tested on: Streptococcus pneumoniae IID 552; experiment: MIC, antibacterial spectrum (aerobic bacteria); conditions: Streptococcus pneumoniae, IID552
# [16] = tested on: Klebsiella pneumoniae KY(GN)6445; experiment: MIC, antibacterial spectrum (aerobic bacteria); conditions: Klebsiella pneumoniae
# C. perfringens KYA 13123 = experiment: microbe, parasite or virus in culture; conditions: Clostridium perfringens, KYA13123
# C. ramosum = experiment: MIC, antibacterial spectrum (anaerobic bacteria); conditions: Thomasclavelia ramosa
# P. aeruginosa IFO 12689 = experiment: MIC, antibacterial spectrum (aerobic bacteria); conditions: Pseudomonas aeruginosa, IFO12689
# P. aeruginosa IID 1210 = experiment: MIC, antibacterial spectrum (aerobic bacteria); conditions: Pseudomonas aeruginosa, IID1210
# [17] = tested on: Bacteroides fragilis GM 7000; experiment: MIC, antibacterial spectrum (anaerobic bacteria); conditions: Bacteroides fragilis, GM7000
# P. cepacia GIFU 518 = experiment: MIC, antibacterial spectrum (aerobic bacteria); conditions: Burkholderia cepacia, GIFU518
# [18] = tested on: Alcaligenes faecalis 0114002; experiment: MIC, antibacterial spectrum (aerobic bacteria); conditions: Alcaligenes faecalis 0114002, Gram -, 10^6 cells/ml
# [19] = tested on: Fusobacterium necrophorum S-45; experiment: MIC, antibacterial spectrum (anaerobic bacteria); conditions: Fusobacterium necrophorum, S45
# Pst. micros UPI 5464-1 = experiment: MIC, antibacterial spectrum (anaerobic bacteria); conditions: Parvimonas micra, UPI54641, Pst. micros UPI 5464-1, Gram +, 10^6 cells/ml
# S. aureus Smith = experiment: MIC, antibacterial spectrum (aerobic bacteria); conditions: Staphylococcus aureus
# [20] = tested on: Acinetobacter anitratus IID 876; experiment: MIC, antibacterial spectrum (aerobic bacteria); conditions: Acinetobacter calcoaceticus, IID876
# [21] = tested on: Peptococcus magnus KY 017; experiment: MIC, antibacterial spectrum (anaerobic bacteria); conditions: Finegoldia magna, KY017
# S. epidermidis IID 866 = experiment: MIC, antibacterial spectrum (aerobic bacteria); conditions: Staphylococcus epidermidis, IID866
# S. marcescens GN 7577 = experiment: MIC, antibacterial spectrum (aerobic bacteria); conditions: Serratia marcescens, GN7577
# [22] = tested on: Bacillus subtilis PCI 219; experiment: MIC, antibacterial spectrum (aerobic bacteria); conditions: Bacillus subtilis, PCI219
# [23] = tested on: Citrobacter freundii IID 976; experiment: MIC, antibacterial spectrum (aerobic bacteria); conditions: Citrobacter freundii, IID976
smiles,measurement,setting,value
"O=C(O)c1cn(C2CC2)c2cc(N3CCNCC3)c(F)cc2c1=O [CPFX, Ciprofloxacin, reference compound]",MIC,[1],12.5 µg/mL
same,MIC,B. distasonis 8503,6.25 µg/mL
same,MIC,P. maltophilia GIFU 2491,0.39 µg/mL
same,MIC,[2],0.2 µg/mL
same,MIC,[3],0.0125 µg/mL
same,MIC,E. faecalis IID 682,0.78 µg/mL
same,MIC,[4],0.05 µg/mL
same,MIC,[5],1.56 µg/mL
same,MIC,[6],0.0125 µg/mL
same,MIC,E. coli ML 4707,0.0125 µg/mL
same,MIC,[7],0.78 µg/mL
same,MIC,S. pyogenes IID 692,0.78 µg/mL
same,MIC,B. fragilis 0558,3.13 µg/mL
same,MIC,[8],0.78 µg/mL
same,MIC,[9],0.05 µg/mL
same,MIC,[10],≤ 0.0063 µg/mL
same,MIC,[11],0.2 µg/mL
same,MIC,Shigella sonnei IID 969,0.0125 µg/mL
same,MIC,B. fragilis 25285,6.25 µg/mL
same,MIC,E. coli ATCC 10536,0.0125 µg/mL
same,MIC,K. pneumoniae 1-220S,0.05 µg/mL
same,MIC,[12],0.05 µg/mL
same,MIC,[13],12.5 µg/mL
same,MIC,P. mirabilis IID 994,0.0125 µg/mL
same,MIC,[14],0.2 µg/mL
same,MIC,[15],0.78 µg/mL
same,MIC,[16],0.0125 µg/mL
same,MIC,C. perfringens KYA 13123,0.39 µg/mL
same,MIC,C. ramosum,12.5 µg/mL
same,MIC,P. aeruginosa IFO 12689,0.2 µg/mL
same,MIC,P. aeruginosa IID 1210,0.2 µg/mL
same,MIC,[17],6.25 µg/mL
same,MIC,P. cepacia GIFU 518,0.39 µg/mL
same,MIC,[18],0.2 µg/mL
same,MIC,[19],1.56 µg/mL
same,MIC,Pst. micros UPI 5464-1,0.2 µg/mL
same,MIC,S. aureus Smith,0.39 µg/mL
same,MIC,[20],0.1 µg/mL
same,MIC,[21],0.39 µg/mL
same,MIC,S. epidermidis IID 866,0.2 µg/mL
same,MIC,S. marcescens GN 7577,0.39 µg/mL
same,MIC,[22],0.05 µg/mL
same,MIC,[23],0.0125 µg/mL
